Laboratory results from patent US20240138411A1, “METHOD OF […] OF SUGARCANE” (CORTEVA AGRISCIENCE LLC, priority 2021, published 2024).

Tested on: sugarcane
Assay: Sugarcane flowering inhibition field trials, floral induction rated on UFSCar scale
Assay type: in vivo
Protocol: In order to explore the activity of florpyrauxifen as flowering inhibitor in sugarcane, field studies were carried out. Florpyrauxifen-benzyl was tested at rates from 2 to 20 grams active ingredient per hectare (g ai/ha) and compared to Ethrel® 720 (Bayer), the standard treatment. The flowering inhibition effect was assessed by checking the floral induction in sugarcane through the percentage scale recommended by UFSCar (Federal University of Sao Carlos, Sao Paulo, Brazil).
Four trials were carried out in sugarcane where florpyrauxifen-benzyl (Rinskor®), applied at a rate of 2 to 20 g ai/ha, was compared to ethephon (Ethrel® 720) applied at a rate of 475 g ai/ha. Control plots of untreated sugarcane were also evaluated. Rinskor® and Ethrel® 720 were diluted in water and a single application for each study (backpack sprayer) was performed delivering 50 L of spray solution per ha at the reproductive stage of sugarcane and at a maximum 150 days before harvest. The activity of florpyrauxifen-benzyl as a flowering inhibitor was measured via assessments (Scale of flowering inhibition—see chart 1) performed at 0, 14, 30, 45, 60, 75, 90, 120, 150 days after application, or up to harvest time. The assessments were measured in sugarcane stems, rating the flowering induction according to the UFSCar scale shown below. Significance of treatment effect was evaluated with F-approximate test (α=0.1) and least square means from different treatments were compared with Tukey's test.

COc1c(Cl)ccc(-c2nc(C(=O)OCc3ccccc3)c(Cl)c(N)c2F)c1F [Rinskor, florpyrauxifen-benzyl]
Frequency 1/1 (0%) (Table 2, 120 DAA, 5 g ai/ha): 0.0% | Frequency 2/1 (15%) (Table 2, 120 DAA, 5 g ai/ha): 0.0% | Frequency 3/1 (30%) (Table 2, 120 DAA, 5 g ai/ha): 0.0% | Frequency 4/1 (50%) (Table 2, 120 DAA, 5 g ai/ha): 0.0% | Frequency 4/2 (80%) (Table 2, 120 DAA, 5 g ai/ha): 7.5% | Frequency 4/3 (90%) (Table 2, 120 DAA, 5 g ai/ha): 20.0% | Frequency 4/4 (100%) (Table 2, 120 DAA, 5 g ai/ha): 72.5% | % Referring to Scale (Table 2, 120 DAA, 7 g ai/ha): 97.0% | Frequency 1/1 (0%) (Table 2, 120 DAA, 7 g ai/ha): 0.0% | Frequency 2/1 (15%) (Table 2, 120 DAA, 7 g ai/ha): 0.0% | Frequency 3/1 (30%) (Table 2, 120 DAA, 7 g ai/ha): 0.0% | Frequency 4/1 (50%) (Table 2, 120 DAA, 7 g ai/ha): 0.0% | Frequency 4/2 (80%) (Table 2, 120 DAA, 7 g ai/ha): 5.0% | Frequency 4/3 (90%) (Table 2, 120 DAA, 7 g ai/ha): 20.0% | Frequency 4/4 (100%) (Table 2, 120 DAA, 7 g ai/ha): 75.0% | % Referring to Scale (Table 2, 120 DAA, 10 g ai/ha): 96.8% | Frequency 1/1 (0%) (Table 2, 120 DAA, 10 g ai/ha): 0.0% | Frequency 2/1 (15%) (Table 2, 120 DAA, 10 g ai/ha): 0.0% | Frequency 3/1 (30%) (Table 2, 120 DAA, 10 g ai/ha): 0.0% | Frequency 4/1 (50%) (Table 2, 120 DAA, 10 g ai/ha): 0.0% | Frequency 4/2 (80%) (Table 2, 120 DAA, 10 g ai/ha): 10.0% | Frequency 4/3 (90%) (Table 2, 120 DAA, 10 g ai/ha): 12.5% | Frequency 4/4 (100%) (Table 2, 120 DAA, 10 g ai/ha): 77.5% | % Referring to Scale (Table 2, 120 DAA, 15 g ai/ha): 98.5% | Frequency 1/1 (0%) (Table 2, 120 DAA, 15 g ai/ha): 0.0% | Frequency 2/1 (15%) (Table 2, 120 DAA, 15 g ai/ha): 0.0% | Frequency 3/1 (30%) (Table 2, 120 DAA, 15 g ai/ha): 0.0% | Frequency 4/1 (50%) (Table 2, 120 DAA, 15 g ai/ha): 0.0% | Frequency 4/2 (80%) (Table 2, 120 DAA, 15 g ai/ha): 0.0% | Frequency 4/3 (90%) (Table 2, 120 DAA, 15 g ai/ha): 15.0% | Frequency 4/4 (100%) (Table 2, 120 DAA, 15 g ai/ha): 85.0% | % Referring to Scale (Table 2, 120 DAA, 20 g ai/ha): 97.5% | Frequency 1/1 (0%) (Table 2, 120 DAA, 20 g ai/ha): 0.0% | Frequency 2/1 (15%) (Table 2, 120 DAA, 20 g ai/ha): 0.0% | Frequency 3/1 (30%) (Table 2, 120 DAA, 20 g ai/ha): 0.0% | Frequency 4/1 (50%) (Table 2, 120 DAA, 20 g ai/ha): 0.0% | Frequency 4/2 (80%) (Table 2, 120 DAA, 20 g ai/ha): 7.5% | Frequency 4/3 (90%) (Table 2, 120 DAA, 20 g ai/ha): 10.0% | Frequency 4/4 (100%) (Table 2, 120 DAA, 20 g ai/ha): 82.5% | % Referring to Scale (Table 3, 90 DAA, 2 g ai/ha): 0.0% | Frequency 1/1 (0%) (Table 3, 90 DAA, 2 g ai/ha): 100.0% | Frequency 2/1 (15%) (Table 3, 90 DAA, 2 g ai/ha): 0.0% | Frequency 3/1 (30%) (Table 3, 90 DAA, 2 g ai/ha): 0.0% | Frequency 4/1 (50%) (Table 3, 90 DAA, 2 g ai/ha): 0.0% | Frequency 4/2 (80%) (Table 3, 90 DAA, 2 g ai/ha): 0.0% | Frequency 4/3 (90%) (Table 3, 90 DAA, 2 g ai/ha): 0.0% | Frequency 4/4 (100%) (Table 3, 90 DAA, 2 g ai/ha): 0.0% | % Referring to Scale (Table 3, 90 DAA, 5 g ai/ha): 0.0% | Frequency 1/1 (0%) (Table 3, 90 DAA, 5 g ai/ha): 100.0% | Frequency 2/1 (15%) (Table 3, 90 DAA, 5 g ai/ha): 0.0% | Frequency 3/1 (30%) (Table 3, 90 DAA, 5 g ai/ha): 0.0% | Frequency 4/1 (50%) (Table 3, 90 DAA, 5 g ai/ha): 0.0% | Frequency 4/2 (80%) (Table 3, 90 DAA, 5 g ai/ha): 0.0% | Frequency 4/3 (90%) (Table 3, 90 DAA, 5 g ai/ha): 0.0% | Frequency 4/4 (100%) (Table 3, 90 DAA, 5 g ai/ha): 0.0% | % Referring to Scale (Table 3, 90 DAA, 7 g ai/ha): 0.0% | Frequency 1/1 (0%) (Table 3, 90 DAA, 7 g ai/ha): 100.0% | Frequency 2/1 (15%) (Table 3, 90 DAA, 7 g ai/ha): 0.0% | Frequency 3/1 (30%) (Table 3, 90 DAA, 7 g ai/ha): 0.0% | Frequency 4/1 (50%) (Table 3, 90 DAA, 7 g ai/ha): 0.0% | Frequency 4/2 (80%) (Table 3, 90 DAA, 7 g ai/ha): 0.0% | Frequency 4/3 (90%) (Table 3, 90 DAA, 7 g ai/ha): 0.0% | Frequency 4/4 (100%) (Table 3, 90 DAA, 7 g ai/ha): 0.0% | % Referring to Scale (Table 3, 90 DAA, 10 g ai/ha): 0.4% | Frequency 1/1 (0%) (Table 3, 90 DAA, 10 g ai/ha): 97.5% | Frequency 2/1 (15%) (Table 3, 90 DAA, 10 g ai/ha): 2.5% | Frequency 3/1 (30%) (Table 3, 90 DAA, 10 g ai/ha): 0.0% | Frequency 4/1 (50%) (Table 3, 90 DAA, 10 g ai/ha): 0.0% | Frequency 4/2 (80%) (Table 3, 90 DAA, 10 g ai/ha): 0.0% | Frequency 4/3 (90%) (Table 3, 90 DAA, 10 g ai/ha): 0.0% | Frequency 4/4 (100%) (Table 3, 90 DAA, 10 g ai/ha): 0.0% | % Referring to Scale (Table 3, 90 DAA, 15 g ai/ha): 0.0% | Frequency 1/1 (0%) (Table 3, 90 DAA, 15 g ai/ha): 100.0% | Frequency 2/1 (15%) (Table 3, 90 DAA, 15 g ai/ha): 0.0% | Frequency 3/1 (30%) (Table 3, 90 DAA, 15 g ai/ha): 0.0% | Frequency 4/1 (50%) (Table 3, 90 DAA, 15 g ai/ha): 0.0% | Frequency 4/2 (80%) (Table 3, 90 DAA, 15 g ai/ha): 0.0% | Frequency 4/3 (90%) (Table 3, 90 DAA, 15 g ai/ha): 0.0% | Frequency 4/4 (100%) (Table 3, 90 DAA, 15 g ai/ha): 0.0% | % Referring to Scale (Table 3, 90 DAA, 20 g ai/ha): 0.0% | Frequency 1/1 (0%) (Table 3, 90 DAA, 20 g ai/ha): 100.0% | Frequency 2/1 (15%) (Table 3, 90 DAA, 20 g ai/ha): 0.0% | Frequency 3/1 (30%) (Table 3, 90 DAA, 20 g ai/ha): 0.0% | Frequency 4/1 (50%) (Table 3, 90 DAA, 20 g ai/ha): 0.0% | Frequency 4/2 (80%) (Table 3, 90 DAA, 20 g ai/ha): 0.0% | Frequency 4/3 (90%) (Table 3, 90 DAA, 20 g ai/ha): 0.0% | Frequency 4/4 (100%) (Table 3, 90 DAA, 20 g ai/ha): 0.0% | % Referring to Scale (Table 3, 120 DAA, 2 g ai/ha): 5.6% | Frequency 1/1 (0%) (Table 3, 120 DAA, 2 g ai/ha): 62.5% | Frequency 2/1 (15%) (Table 3, 120 DAA, 2 g ai/ha): 37.5% | Frequency 3/1 (30%) (Table 3, 120 DAA, 2 g ai/ha): 0.0% | Frequency 4/1 (50%) (Table 3, 120 DAA, 2 g ai/ha): 0.0% | Frequency 4/2 (80%) (Table 3, 120 DAA, 2 g ai/ha): 0.0% | Frequency 4/3 (90%) (Table 3, 120 DAA, 2 g ai/ha): 0.0% | Frequency 4/4 (100%) (Table 3, 120 DAA, 2 g ai/ha): 0.0% | % Referring to Scale (Table 3, 120 DAA, 5 g ai/ha): 6.9% | Frequency 1/1 (0%) (Table 3, 120 DAA, 5 g ai/ha): 62.5% | Frequency 2/1 (15%) (Table 3, 120 DAA, 5 g ai/ha): 32.5% | Frequency 3/1 (30%) (Table 3, 120 DAA, 5 g ai/ha): 2.5% | Frequency 4/1 (50%) (Table 3, 120 DAA, 5 g ai/ha): 2.5% | Frequency 4/2 (80%) (Table 3, 120 DAA, 5 g ai/ha): 0.0% | Frequency 4/3 (90%) (Table 3, 120 DAA, 5 g ai/ha): 0.0% | Frequency 4/4 (100%) (Table 3, 120 DAA, 5 g ai/ha): 0.0% | % Referring to Scale (Table 3, 120 DAA, 7 g ai/ha): 3.0% | Frequency 1/1 (0%) (Table 3, 120 DAA, 7 g ai/ha): 80.0% | Frequency 2/1 (15%) (Table 3, 120 DAA, 7 g ai/ha): 20.0% | Frequency 3/1 (30%) (Table 3, 120 DAA, 7 g ai/ha): 0.0% | Frequency 4/1 (50%) (Table 3, 120 DAA, 7 g ai/ha): 0.0% | Frequency 4/2 (80%) (Table 3, 120 DAA, 7 g ai/ha): 0.0% | Frequency 4/3 (90%) (Table 3, 120 DAA, 7 g ai/ha): 0.0% | Frequency 4/4 (100%) (Table 3, 120 DAA, 7 g ai/ha): 0.0% | % Referring to Scale (Table 3, 120 DAA, 10 g ai/ha): 4.1%
